# PubChem BioAssay AID1963852 (Molecular Pharmacology Branch, DTP, NCI, 2024)
# pIC50: −log10 of the molar value.
# System: 282377-053-R-J1-PDC complex spheroid viability
# Test: Anticancer human tumor 282377-053-R-J1-PDC patient-derived colon adenocarcinoma cell line growth inhibition [POLQ]
# Conditions: for pIC50: curve of first compound; for viability, T/C: stronger effect = lower value
# Protocol: Multicellular complex tumor spheroid response to Polymerase (POL) inhibitors (novobiocin, ART-558, RP6685) in combination with a variety of drugs and investigational agents in selected tumor cell lines
# The POL inhibitors (novobiocin, ART-558, and RP6685) were evaluated both individually and in combination with standard of care and investigational anticancer small molecules within a complex spheroid model of solid tumors. . Complex spheroids include a stromal component modeled by human endothelial cells (HUVEC) and fibroblasts modeled by human mesenchymal stem cells (MSCs). The concentration ranges selected for each drug and investigational agent were based upon clinically achievable concentrations if the clinical Cmax of the agent was known.
# Compounds. The drugs and investigational agents: novobiocin (NSC847541), ART-558 (NSC835418), RP-6685 (NSC848927), peposertib (NSC802822), ceralasertib (NSC780249), elimusertib (NSC800525), camonsertib (NSC841442), AZD-1390 (NSC803789), olaparib (NSC753686), talazoparib (NSC767125), rucaparib (NSC756644), sotorasib (NSC818433), MRTX-1133 (NSC836407), SN-38 (NSC673596), topotecan (NSC609699), epotoside (NSC141540), doxorubicin (NSC123127), gemcitabine (NSC613327), 5-fluorouracil (NSC19893), paclitaxel (NSC125973), vemurafenib (NSC761431), MSA-2 (NSC828583), SN-011 (NSC837082), adavosertib (NSC754352), prexasertib (NSC758257), carboplatin (NSC241240) and oxaliplatin (NSC266046), were obtained from the National Cancer Institute (NCI) Developmental Therapeutics Program Chemical Repository (21). The FDA-approved anticancer drug set is available from the Developmental Therapeutics Program at https://dtp.cancer.gov/organization/dscb/obtaining/. […] The stock solutions were prepared in dimethyl sulfoxide (DMSO, Sigma-Aldrich, St. Louis, MO, cat. D2650), except for the platinum compounds which were prepared in saline (Quality Biological, Gaithersburg, MD, cat. 114-055-101), at 800-fold the tested concentration and stored at -70 degrees C prior to their use. All drugs and investigational agents were tested over a range starting from a high concentration at or near the clinical Cmax and decreasing in half-log increments. If the clinical Cmax for an agent had not been determined, the highest concentration tested was 10 microM, except for SN-38, which was tested at a high concentration of 1 microM.
# Cell Culture. All cells were maintained in an incubator at 37 degrees C and 5% CO2 with 95% humidity. The PDC lines were cultured according to standard operating procedures established by the NCI PDMR (https://pdmr.cancer.gov). Table 3 of the manuscript, lists the cell lines along with the number of the three cell types plated to form the mct-spheroids and media for tumor cell growth. After thawing, all PDC lines, except 997537-175-T-J1-PDC and 415267-285-R-J2-PDC, were cultured in Matrigel-coated flasks prepared with a working solution of 1X Ham's F-12 nutrient mix, without supplementation (Thermo Fisher Scientific, cat. 11765054), 100 U/mL penicillin-streptomycin (Thermo Fisher Scientific, cat. 15140122), and 2.5% Matrigel (Corning Inc., Corning, NY, cat. 354248) for the first three passages. The two PDC lines 997537-175-T-J1-PDC and 415267-285-R-J2-PDC were cultured on uncoated flasks. The 857933-349-R-J2-PDC line was cultured in 6C/Colon 1B media containing advanced DMEM/F-12 (Thermo Fisher Scientific, cat. 12634028), 10 mM HEPES (Thermo Fisher Scientific, cat. 15630080), 1X GlutaMAX supplement (Thermo Fisher Scientific, cat. 35050061), 0.1 mg/mL primocin (InvivoGen, San Diego, CA, cat. ant-pm-2), 10% defined fetal bovine serum, heat inactivated (HyClone Laboratories Inc., Logan, UT, cat. SH30070.03HI), 50% L-WRN conditioned media (ATCC, cat. CRL-3276), 1.25 mM N-Acetyl-L-cysteine (Sigma-Aldrich, cat. A9165), 10 mM nicotinamide (Sigma-Aldrich, cat. N0636), 1X B-27 supplement (Thermo Fisher Scientific, cat. 17504044), 1X N-2 supplement (Thermo Fisher Scientific, cat. […]
# [1] = second compound 0.0316 µM, first compound 0.0316 µM
# [2] = second compound 0.0316 µM, first compound 0.1 µM
# [3] = second compound 0.0316 µM, first compound 0.316 µM
# [4] = second compound 0.0316 µM, first compound 1 µM
# [5] = second compound 0.0316 µM, first compound 3.16 µM
# [6] = second compound 0.0316 µM, first compound 10 µM
# [7] = second compound 0.1 µM, first compound 0.0316 µM
# [8] = second compound 0.1 µM, first compound 0.1 µM
# [9] = second compound 0.1 µM, first compound 0.316 µM
# [10] = second compound 0.1 µM, first compound 1 µM
# [11] = second compound 0.1 µM, first compound 3.16 µM
# [12] = second compound 0.1 µM, first compound 10 µM
# [13] = second compound 0.316 µM, first compound 0.0316 µM
# [14] = second compound 0.316 µM, first compound 0.1 µM
# [15] = second compound 0.316 µM, first compound 0.316 µM
# [16] = second compound 0.316 µM, first compound 1 µM
# [17] = second compound 0.316 µM, first compound 3.16 µM
# [18] = second compound 0.316 µM, first compound 10 µM
# [19] = second compound 1 µM, first compound 0.0316 µM
# [20] = second compound 1 µM, first compound 0.1 µM
# [21] = second compound 1 µM, first compound 0.316 µM
# [22] = second compound 1 µM, first compound 1 µM
# [23] = second compound 1 µM, first compound 3.16 µM
# [24] = second compound 1 µM, first compound 10 µM
# [25] = second compound 3.16 µM, first compound 0.0316 µM
# [26] = second compound 3.16 µM, first compound 0.1 µM
# [27] = second compound 3.16 µM, first compound 0.316 µM
# [28] = second compound 3.16 µM, first compound 1 µM
# [29] = second compound 3.16 µM, first compound 3.16 µM
# [30] = second compound 3.16 µM, first compound 10 µM
# [31] = second compound 10 µM, first compound 0.0316 µM
# [32] = second compound 10 µM, first compound 0.1 µM
# [33] = second compound 10 µM, first compound 0.316 µM
# [34] = second compound 10 µM, first compound 1 µM
# [35] = second compound 10 µM, first compound 3.16 µM
# [36] = second compound 10 µM, first compound 10 µM
# 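Further: spheroids exposed to compounds for seven days.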
# 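Wherever viability, T/C is given: 100% = DMSO vehicle control viability.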
compound,measurement,setting,value
CNCc1ccc(-c2[nH]c3cc(F)cc4c3c2CCNC4=O)cc1 + Cc1cccc(N(C)C(=O)C2C(O)CCN2c2nc(C)cc(C(F)(F)F)c2C#N)c1,pIC50,second compound 0.0316 µM,< 5.00
same,pIC50,second compound 0.1 µM,< 5.00
same,pIC50,second compound 0.316 µM,< 5.00
same,pIC50,second compound 1 µM,< 5.00
same,pIC50,second compound 3.16 µM,< 5.00
same,pIC50,second compound 10 µM,< 5.00
same,"viability, T/C",[1],122%
same,"viability, T/C",[2],89.9%
same,"viability, T/C",[3],135%
same,"viability, T/C",[4],113%
same,"viability, T/C",[5],122%
same,"viability, T/C",[6],144%
same,"viability, T/C",[7],122%
same,"viability, T/C",[8],94.3%
same,"viability, T/C",[9],98.2%
same,"viability, T/C",[10],93%
same,"viability, T/C",[11],134%
same,"viability, T/C",[12],140%
same,"viability, T/C",[13],99.1%
same,"viability, T/C",[14],105%
same,"viability, T/C",[15],87.4%
same,"viability, T/C",[16],98.1%
same,"viability, T/C",[17],113%
same,"viability, T/C",[18],124%
same,"viability, T/C",[19],117%
same,"viability, T/C",[20],98.7%
same,"viability, T/C",[21],105%
same,"viability, T/C",[22],104%
same,"viability, T/C",[23],138%
same,"viability, T/C",[24],129%
same,"viability, T/C",[25],85.9%
same,"viability, T/C",[26],114%
same,"viability, T/C",[27],80.2%
same,"viability, T/C",[28],85.1%
same,"viability, T/C",[29],117%
same,"viability, T/C",[30],150%
same,"viability, T/C",[31],104%
same,"viability, T/C",[32],98.4%
same,"viability, T/C",[33],104%
same,"viability, T/C",[34],103%
same,"viability, T/C",[35],103%
same,"viability, T/C",[36],138%
CCc1cc2c(N3CCc4c(cc(Cn5ccnc5)cc4-c4cn(C)nc4C(F)(F)F)C3=O)cc(C)nc2c(OC)n1 + Cc1cccc(N(C)C(=O)C2C(O)CCN2c2nc(C)cc(C(F)(F)F)c2C#N)c1,pIC50,second compound 0.0316 µM,< 5.00
same,pIC50,second compound 0.1 µM,< 5.00
same,pIC50,second compound 0.316 µM,< 5.00
same,pIC50,second compound 1 µM,< 5.00
same,pIC50,second compound 3.16 µM,< 5.00
same,pIC50,second compound 10 µM,< 5.00
same,"viability, T/C",[1],104%
same,"viability, T/C",[2],99.8%
same,"viability, T/C",[3],89.7%
same,"viability, T/C",[4],103%
same,"viability, T/C",[5],108%
same,"viability, T/C",[6],134%
same,"viability, T/C",[7],85.9%
same,"viability, T/C",[8],102%
same,"viability, T/C",[9],91.2%
same,"viability, T/C",[10],91.2%
same,"viability, T/C",[11],112%
same,"viability, T/C",[12],117%
same,"viability, T/C",[13],90.3%
same,"viability, T/C",[14],99.8%
same,"viability, T/C",[15],111%
same,"viability, T/C",[16],110%
same,"viability, T/C",[17],104%
same,"viability, T/C",[18],108%
same,"viability, T/C",[19],111%
same,"viability, T/C",[20],102%
same,"viability, T/C",[21],114%
same,"viability, T/C",[22],89.9%
same,"viability, T/C",[23],108%
same,"viability, T/C",[24],107%
same,"viability, T/C",[25],110%
same,"viability, T/C",[26],99.5%
same,"viability, T/C",[27],101%
same,"viability, T/C",[28],93.8%
same,"viability, T/C",[29],122%
same,"viability, T/C",[30],115%
same,"viability, T/C",[31],96.8%
same,"viability, T/C",[32],98.3%
same,"viability, T/C",[33],97%
same,"viability, T/C",[34],96.8%
same,"viability, T/C",[35],104%
same,"viability, T/C",[36],126%
COc1ccc([C@@H](O)c2cc(-c3ncnc4cc(N5CCOCC5)ccc34)c(F)cc2Cl)nn1 + Nc1ccc(C#CCN(C(=O)Cc2ncc(C(F)(F)F)cc2C(F)(F)F)c2ccc(F)cc2)nn1,pIC50,second compound 0.0316 µM,< 5.00
same,pIC50,second compound 0.1 µM,< 5.00
same,pIC50,second compound 0.316 µM,< 5.00
same,pIC50,second compound 1 µM,< 5.00
same,pIC50,second compound 3.16 µM,< 5.00
same,pIC50,second compound 10 µM,< 5.00
same,"viability, T/C",[1],101%
same,"viability, T/C",[2],98.1%
same,"viability, T/C",[3],102%
same,"viability, T/C",[4],93.8%
same,"viability, T/C",[5],88.3%
same,"viability, T/C",[6],71.8%
same,"viability, T/C",[7],94.4%
same,"viability, T/C",[8],108%
same,"viability, T/C",[9],97.3%
same,"viability, T/C",[10],100%
same,"viability, T/C",[11],85.5%
same,"viability, T/C",[12],83.2%
same,"viability, T/C",[13],102%
same,"viability, T/C",[14],86.2%
same,"viability, T/C",[15],111%
same,"viability, T/C",[16],89%
same,"viability, T/C",[17],106%
same,"viability, T/C",[18],86.9%
same,"viability, T/C",[19],106%
same,"viability, T/C",[20],88.5%
same,"viability, T/C",[21],95.5%
same,"viability, T/C",[22],91.9%
same,"viability, T/C",[23],88.6%
same,"viability, T/C",[24],84.1%
same,"viability, T/C",[25],109%
same,"viability, T/C",[26],105%
same,"viability, T/C",[27],92.5%
same,"viability, T/C",[28],100%
same,"viability, T/C",[29],91%
same,"viability, T/C",[30],85.4%
same,"viability, T/C",[31],122%
same,"viability, T/C",[32],111%
same,"viability, T/C",[33],98.7%
same,"viability, T/C",[34],109%
same,"viability, T/C",[35],100%
same,"viability, T/C",[36],90.1%
